# According to patent US10563263B2, “Genetic polymorphisms associated with statin response and cardiovascular diseases, methods of detection and uses thereof” (CELERA CORPORATION, priority 2010, dated 2020):
# Test system: stroke or transient ischemic attack (TIA)
# Assay: CARE: stroke (including TIA) statin response by SNP genotype, hazard ratio pravastatin vs placebo (Tables 20-21)
# Type: in vivo, human
# Conditions: for EVENTS_RESP (total number of stroke or TIA events): CARE pravastatin arm; for HR_RESP (hazard ratio pravastatin vs placebo, stroke) / HR_RESP (hazard ratio, pravastatin-treated vs placebo-treated): CARE; for HR_RESP (hazard ratio pravastatin vs placebo, stroke): ref = placebo; for HR_RESP (hazard ratio, pravastatin-treated vs placebo-treated): stroke or TIA, pravastatin 40 mg/day
# Description: Tables 20-21 provides SNPs associated with stroke risk and/or stroke statin response (reduction in stroke risk by statin treatment) in the CARE sample set. Consistent with the CARE trial, the stroke endpoint in the analysis for which the results are provided in Tables 20-21 included stroke as well as transient ischemic attack (TIA).
# In Tables 20-22, certain columns are labeled “RESP”, “PLACEBO, OR “ALL”. “RESP” is for statin response as measured by comparing risk (risk for stroke, including TIA, in Tables 20-21, and risk for CHD, specifically recurrent MI, in Table 22) in the pravastatin-treated group with risk in the placebo-treated group, “PLACEBO” is the placebo-treated group, and “ALL” is the combination of the placebo-treated group and the pravastatin-treated group. “RESP” is the analysis to assess statin response in the indicated genotype group.
# “EVENTS” indicates the total number of events (stroke or TIA for Tables 20-21, and recurrent MI for Table 22) in individuals with the indicated genotype.
# “HR” indicates the hazard ratio.
# CARE was a secondary prevention trial and WOSCOPS was a primary prevention trial.
# Table 20 provides SNPs associated with stroke risk and/or stroke statin response in the CARE sample set. For example, SNPs rs10757278 and rs1333049 at chromosomal location 9p21 were associated with a reduction of stroke events by statin treatment in CARE, particularly for heterozygotes (see Table 20). Furthermore, SNPs rs12425791 and rs11833579 at chromosomal location 12p13 near the NINJ2 gene were associated with stroke risk in the placebo arm of CARE (see Table 20). […] Consistent with the CARE trial, the stroke endpoint in the analysis for which the results are provided in Tables 20-21 included stroke as well as transient ischemic attack (TIA).
# Fine-mapping at the chromosome 12p13 locus was carried out by selecting 77 tagging SNPs from a 400 kb region of the chromosome 12p13 locus which covered the NINJ2 gene and other genes, genotyping these 77 SNPs, and further imputing the genotypes of approximately 250 additional SNPs in this region, for individuals in the CARE study. Analyzing these fine-mapping SNPs for association with stroke risk in the placebo arm of CARE and for stroke statin response in CARE identified SNP rs873134 in the B4GALNT3 gene in the chromosome 12p13 region near NINJ2 (see Table 21).
smiles,measurement,setting,value
"CC[C@H](C)C(=O)O[C@H]1C[C@H](O)C=C2C=C[C@H](C)[C@H](CC[C@@H](O)C[C@@H](O)CC(=O)O)[C@H]21 [Pravastatin, pravastatin]",EVENTS_RESP (total number of stroke or TIA events),"rs873134 genotype CC, MODE GEN, of 354 individuals",27
same,EVENTS_RESP (total number of stroke or TIA events),"rs873134 genotype CT + CC, MODE DOM, of 1034 individuals",51
same,EVENTS_RESP (total number of stroke or TIA events),"rs873134 genotype CT + TT, MODE REC, of 1046 individuals",40
same,EVENTS_RESP (total number of stroke or TIA events),"rs873134 genotype CT, MODE GEN, of 680 individuals",24
same,EVENTS_RESP (total number of stroke or TIA events),"rs873134 genotype TT, MODE GEN, of 366 individuals",16
same,"HR_RESP (hazard ratio pravastatin vs placebo, stroke)","rs1333049 (hCV1754666, 9p21), MODE DOM, genotype GC + GG",0.63
same,"HR_RESP (hazard ratio pravastatin vs placebo, stroke)","rs1333049 (hCV1754666, 9p21), MODE GEN, genotype CC",1.11
same,"HR_RESP (hazard ratio pravastatin vs placebo, stroke)","rs1333049 (hCV1754666, 9p21), MODE GEN, genotype GC",0.54
same,"HR_RESP (hazard ratio pravastatin vs placebo, stroke)","rs1333049 (hCV1754666, 9p21), MODE GEN, genotype GG",0.96
same,"HR_RESP (hazard ratio pravastatin vs placebo, stroke)","rs1333049 (hCV1754666, 9p21), MODE REC, genotype GC + CC",0.7
same,"HR_RESP (hazard ratio pravastatin vs placebo, stroke)","rs10757278 (hCV11841860, 9p21), MODE DOM, genotype GA + GG",0.7
same,"HR_RESP (hazard ratio pravastatin vs placebo, stroke)","rs10757278 (hCV11841860, 9p21), MODE GEN, genotype AA",0.9
same,"HR_RESP (hazard ratio pravastatin vs placebo, stroke)","rs10757278 (hCV11841860, 9p21), MODE GEN, genotype GA",0.54
same,"HR_RESP (hazard ratio pravastatin vs placebo, stroke)","rs10757278 (hCV11841860, 9p21), MODE GEN, genotype GG",1.08
same,"HR_RESP (hazard ratio pravastatin vs placebo, stroke)","rs10757278 (hCV11841860, 9p21), MODE REC, genotype GA + AA",0.62
same,"HR_RESP (hazard ratio pravastatin vs placebo, stroke)","rs11833579 (hCV1665834, 12p13), MODE DOM, genotype AG + AA",0.64
same,"HR_RESP (hazard ratio pravastatin vs placebo, stroke)","rs11833579 (hCV1665834, 12p13), MODE GEN, genotype AA",0.26
same,"HR_RESP (hazard ratio pravastatin vs placebo, stroke)","rs11833579 (hCV1665834, 12p13), MODE GEN, genotype AG",0.75
same,"HR_RESP (hazard ratio pravastatin vs placebo, stroke)","rs11833579 (hCV1665834, 12p13), MODE GEN, genotype GG",0.86
same,"HR_RESP (hazard ratio pravastatin vs placebo, stroke)","rs11833579 (hCV1665834, 12p13), MODE REC, genotype AG + GG",0.81
same,"HR_RESP (hazard ratio pravastatin vs placebo, stroke)","rs12425791 (hCV12094896, 12p13), MODE DOM, genotype AG + AA",0.52
same,"HR_RESP (hazard ratio pravastatin vs placebo, stroke)","rs12425791 (hCV12094896, 12p13), MODE GEN, genotype AA",0.28
same,"HR_RESP (hazard ratio pravastatin vs placebo, stroke)","rs12425791 (hCV12094896, 12p13), MODE GEN, genotype AG",0.56
same,"HR_RESP (hazard ratio pravastatin vs placebo, stroke)","rs12425791 (hCV12094896, 12p13), MODE GEN, genotype GG",0.95
same,"HR_RESP (hazard ratio pravastatin vs placebo, stroke)","rs12425791 (hCV12094896, 12p13), MODE REC, genotype AG + GG",0.78
same,"HR_RESP (hazard ratio, pravastatin-treated vs placebo-treated)","rs873134 (hCV2652047) genotype CC, MODE GEN",2.01
same,"HR_RESP (hazard ratio, pravastatin-treated vs placebo-treated)","rs873134 (hCV2652047) genotype CT + CC, MODE DOM",0.83
same,"HR_RESP (hazard ratio, pravastatin-treated vs placebo-treated)","rs873134 (hCV2652047) genotype CT + TT, MODE REC",0.52
same,"HR_RESP (hazard ratio, pravastatin-treated vs placebo-treated)","rs873134 (hCV2652047) genotype CT, MODE GEN",0.5
same,"HR_RESP (hazard ratio, pravastatin-treated vs placebo-treated)","rs873134 (hCV2652047) genotype TT, MODE GEN",0.54
